According to patent US7482008B1, “Human T cell reactive feline protein (TRFP) isolated from house dust and uses therefor” (Merck Patent GmbH, priority 1989, dated 2009):

What was measured:
[1] = tested on: PBMC from cat-allergic patients; assay: IL-2, IFN-gamma and IL-4 measurements by PCR in primary 36 hour PBMC culture; assay type: cell-based, human; conditions: Patient 409 primary 36 hour culture; for STIMULATION INDEX IFN-γ / STIMULATION INDEX IL-4: PCR, vs medium control
Procedure: Peripheral blood mononuclear cells (PBMC) were purified from cat-allergic patients as described in Example 5. Five×10^6 PBMC were cultured at 2×10^6/ml for 36 hours in the presence of medium only, 20 μg purified TRFP/ml or 50 μg peptide/ml. The cells were then washed two times with phosphate buffered saline (PBS, pH 7.2) and lysed with 2 ml […] guanidinium isothiocyanate, 0.5% Sarkosyl, 5 mM sodium citrate, 0.1 M 2-mercaptoethanol, pH 7.0. The lysate was then forced through a 26 gauge needle to shear genomic DNA, and was layered onto a 2 ml cushion of 5.7 M CsCl, 0.01 M EDTA, pH 7.5 in diethylpyrocarbonate (DEPC)-treated water. The lysate was centrifuged at 35,000 RPM in a Beckman SW41 rotor for 18 hours at 20° C. The RNA pellet was resuspended in 0.4 ml TE (10 mM Tris, 1 mM EDTA), pH 7.5, 0.1% SDS, and then extracted three times with 0.5 ml phenol/0.2 ml chloroform. The RNA was then precipitated on dry ice with 2.5 volumes ice-cold ethanol, 1/10 volume 3 M sodium acetate, pH 5.2 in DEPC-treated water, rinsed once with 70% ethanol in DEPC-treated water, and dried. The RNA pellet was resuspended in 2 μl TE., pH 7.5 in DEPC-treated water.
Total cellular RNA was converted to cDNA using the Superscript kit (BRL, Bethesda, Md.). Two μl of RNA were added to one μl oligo (dT)12-18 (500 μg/ml) and 9 μl water. The sample was heated to 70° C. for 10 minutes and ice quenched. Four μl 5× buffer were added to the sample along with 2 μl 0.1 M DTT and 1 μl dNTP mix (10 mM each, dATP, dCTP, dGTP, dTTP). One μl reverse transcriptase (200U) was added and the reaction was carried out for one hour at 42° C. The reaction was terminated by incubation of the sample at 90° C. for five minutes and stored at −80° C.
Ten-fold serial dilutions of T cell cDNA in 10 mM TRIS, pH 7.5 were amplified using the standard kit and protocol recommended by Perkin Elmer-Cetus (Redwood City, Calif.). Each sample received 26.65 μl water, 5 μl ×PCR buffer, 8 μl of dNTP mix (1.25 mM each of dATP, dCTP, dGTP and dTTP), 0.1 μl alpha 32P-dCTP (3000 Ci/mmol), 0.25 μl AmpliTaq, 5 μl cDNA and 5 μl cytokine-specific 5′ and 3′ primers (20 micromolar). The primers used for most cytokines and the beta-actin control were purchased from Clontech (Redwood City, Calif.). The human IL-4 primers were purchased from Research Genetics (Huntsville, Ala.) and had the following sequences: 5′ hIL-4 primer (SEQ. ID. NO: 58):
The PCR products were extracted once with 25 μl chloroform and 25 μl of each sample were then electrophoresed on an 8% polyacrylamide gel at 250 V. The gel was dried and exposed to pre-flashed x-ray film. Several exposures of each gel were then scanned using a Shimadzu flying spot laser densitometer. Values on the linear portion of the titrations were then compared to the medium control values to obtain a stimulation index for each sample. Primers for beta-actin were included as a control for general cDNA levels in each sample. Where the medium control values are not detectable, the lowest measurable response was set at 1.00. In other experiments, levels of cytokine cDNA can be compared directly with previously amplified cytokine specific cDNAs as standards. Thus, absolute levels of particular cytokine cDNAs can be compared from one sample to another and from one experiment to another. In this experiment, IL-2, IL-4 and IFN-gamma levels were measured. As shown, in this particular cat-allergic patient, peptides such as Fel 18 generate more IL-4 than certain other TRFP-derived peptides (Fel 14 and Fel 17). This analysis will be expanded to studies of other cytokines involved in the generation of allergic responses, such as IL-5, IL-8, IL-9, TGF-beta. Samples of cDNA from each treatment can also be saved for later analysis once additional cytokines are identified and sequenced. Peptides generating a spectrum of cytokines favorable for the generation of allergic responses can be avoided for therapeutic use in the treatment of cat allergy. […]

B6CBAF1 mice = assay: Murine T cell response after immunization with peptide YZX, IL-2 production (CTLL-2); assay type: in vivo, mouse; conditions: mice immunized with 100 μg peptide YZX in CFA; label = antigen in culture
Procedure: 10 B6CBAF1 mice were immunized subcutaneously at the base of the tail and in the thigh region with 100 μg of peptide YZX in complete Freund's adjuvant. After 10 days, the inguinal, paraaortic, and popliteal nodes of the immunized mice were removed and pooled. The lymph node cells were suspended in cold RPMI 1640 with 1% fetal bovine serum (FBS) by passage through stainless steel mesh. The cells were washed 2 times with cold RPMI-1640 containing 1% FBS and maintained at 4° C.
The lymph node cells were plated at 4×10^6 cells/ml in RPMI 1640 with 10% FBS, 250 μg/ml penicillin G, 100 μg/ml streptomycin, and 5×10^−5 M 2-mercaptoethanol. […] After 24 hours, 50 μl of supernatant was removed from each culture and frozen overnight to eliminate live cell carryover. The supernatant was warmed to […] and washed. CTLL-2 indicator cells (ATCC # T1B 214) were added (5×10^3 cells/well). This indicator cell line requires IL-2 for continued growth. After 24 hours, H^3-thymidine (1 μCi/well) was added and the cells were further incubated for 4 hours. The plates were frozen and thawed, harvested on a Tomtec 96 well harvester (Tomtec, Orange, Conn.), and counted on a Betaplate beta counter (Pharmacia, Gaithersburg, Md.).

Substance	RATIO IFN/IL-4 [1]	STIMULATION INDEX IFN-γ [1]	STIMULATION INDEX IL-4 [1]	T cell response of pooled lymph node cells (IL-2 production) (B6CBAF1 mice)
NARILKNCVDAKMTEEDKE [Fel 4, TRFP chain 1 amino acids 37-55]	2.6	25.8	10.0	
TRFP: human T cell reactive feline protein affinity purified from house dust; two covalently linked chains	0.9	2.1	3.8	
peptide X: amino acid residues 7-30 from chain 1 of TRFP (SEQ. ID. NO: 17); Table 2 lists Fel 8-3 as 7-33 (KRDVDLFLTGTPDEYVEQVAQYKALPV)				significant response
peptide Y: amino acid residues 29-55 from chain 1 of TRFP (SEQ. ID. NO: 18) (KALPVVLENARILKNCVDAKMTEEDKE)				significant response
